The text below walks through data of PMC8070745, “FEN1 Blockade for Platinum Chemo-Sensitization and Synthetic Lethality in Epithelial Ovarian Cancers” (Cancers, 2021).

Common to all, as to format: cell-based, human
One assay concerns PEO1 spheroids. The experiment in a line: 3D spheroid assay, PEO1. To be noted: PEO1 spheroids vs PEO4 spheroids. As for the experimental part:
(§1) with ice cold PBS and fixed in 70% ethanol for 1h at -20°C. After removal of the fixative solution by centrifugation, cells were stained with 2 µg/ml of phospho-Histone (γH2AX) Ser139 (16202A, Millipore, UK) to detect DSBs.
Cell cycle progression: Cells were treated with 20 µg/ml RNase A (12091021, Invitrogen) and then 10 µg/ml Propidium Iodide (P4170, Sigma Aldrich) was added to determine the cell cycle distribution. The samples were analysed on a Beckman-Coulter FC500 flow cytometer using a 488nm laser for excitation and emission data for PI collected using a 620nm bandpass filter (FL3) and a 525nm bandpass filter (FL1) for FITC-anti-phospho-Histone H2A.X.
Apoptosis detection: Annexin V detection kit (556547, BD Biosciences) was used to quantify apoptotic cells. Briefly, cells were trypsinized, washed with PBS and the cellular pellet was re-suspended in Anexin Binding Buffer (1×). […] All the samples were analysed on a Beckman-Coulter FC500 flow cytometer. The percentage of apoptotic cells was determined (late apoptotic = FITC-Annexin V positive, PI positive early apoptotic = FITC-Annexin V positive, PI negative; live cells = FITC-Annexin V negative, PI negative) and compared for untreated and treated samples. […]
To quantify cell viability, LIVE/DEAD Viability/Cytotoxicity Kit (L3224, Thermo Fisher Scientific) was used. […] At least 10 spheroids were measured. […]

The subject of assay [1] is A2780cis cells. The experiment in a line: Neutral COMET assay, A2780cis. To be noted: combination with cisplatin vs cisplatin or FEN1i monotherapy. As for the experimental part:
(1:200, ab26343). Infrared dye-labelled secondary antibodies (Li-Cor) [IRDye 800CW Donkey Anti-Rabbit IgG and IRDye 680CW Donkey Anti-Mouse IgG] were incubated at a dilution of 1:10000 for 1 h. Membranes were scanned with a LiCor Odyssey machine (700 and 800 nm) to determine protein expression. ß-Tubulin or ß-actin was used as a loading controls for the whole cell lysates. GADPH and YYI were used as loading controls to cytoplasmic and nuclear fractions, respectively. First incubation was with FEN1 antibody and then imaged. This was followed by incubation with loading control and then imaged for analysis. Bar charts show means of optical density (O.D.) ± S.D and all data is representative of at least three independent experiments. qRT-PCR analysis of FEN1 gene expre ssion: RNA was extracted using the RNeasy Mini Kit (74104, Qiagen) and quantified using a Nanodrop 2000c (Thermo Fisher Scientific). cDNA synthesis was performed using the RT2 First Strand Kit (330404, Qiagen). Real time PCR was carried out on an Applied Biosystems […] FAST cycler.
Neutral COMET assay: 1.0x10^5 cells per well were seeded in 6 well tissue culture plates and incubated at 37°C and 5% CO2 overnight. […] Fifty comets were scored per sample using Comet Assay III/IV image analysis software (Perceptive Instruments, Bury St Edmonds, UK). […]

Assay [2] relates to A2780cis cells. As to the kind of experiment: Cell cycle progression, A2780cis. The note with it: FEN1i plus cisplatin. As for the experimental part:
as §1
Cell cycle progression: Cells were treated with 20 µg/ml RNase A (12091021, Invitrogen) and then 10 µg/ml Propidium Iodide (P4170, Sigma Aldrich) was added to determine the cell cycle distribution. The samples were analysed on a Beckman-Coulter FC500 flow cytometer using a 488nm laser for excitation and emission data for PI collected using a 620nm bandpass filter (FL3) and a 525nm bandpass filter (FL1) for FITC-anti-phospho-Histone H2A.X. […]
Graphical representation and statistical analysis was performed in GraphPad Prism 7 (GraphPad, La Jolla, USA).
3D Spheroid assays: A2780_control and A2780 FEN1_ KO as well as A2780cis_control and A2780cis FEN1_ KO cells were seeded at 4500 cells/cm2 density in ultra-low attachment 6-well plates (174932, Thermo Fisher Scientific) and cultured in 3D Tumorsphere Medium (C28070, PromoCell, UK) at 37°C in a 5% CO2 atmosphere. Cells were keep in culture for 7-10 days, toping up with fresh medium every two days until spheroids structures were formed.

As for `Cc1csc2c1c(=O)n(O)c(=O)n2-c1ccccc1` [PTPD, 3-hydroxy-5-methyl-1-phenylthieno [2,3 d]pyrimidine-2,4(1H,3H)-dione], the “spheroid sensitivity to FEN1 inhibitor” value in the assay on PEO1 spheroids is given as “hypersensitive to FEN1 inhibition”. Moreover, the “DNA breaks (neutral COMET)” value in the assay with A2780cis cells [1] is “substantially increased DNA breaks”. Also, in the assay with A2780cis cells [2], the cell cycle effect result is recorded as “G2/M cell cycle arrest”.
